Patent publication US10894777B2, “TG2 inhibitor piperazine compounds and uses thereof” (UNIVERSITY OF OTTAWA, priority 2016, dated 2021)

Columns and labels:
[1] = test system: ECS cells (derived from SCC-13) tumors; test: Tumor xenograft growth assay, SCC-13-derived ECS cells in NSG mice; assay type: in vivo
Protocol: In (A), SCC13-Control-shRNA and SCC13-TG2-shRNA2 cells were double electroporated with empty vector (EV) or YAP(S127A)-encoding vector and at 48 h post-electroporation lysates were collected for immunoblot. In (B), (C), and (D), the indicated cell lines were electroporated with EV or YAP(S127A)-encoding vector and then plated for spheroid formation, invasion and migration assay. In (E) and (F), ECS cells (100,000 cells derived from SCC-13) were injected into each front flank in NSG mice. At 1 d post injection, the mice were treated with 0 or 20 mg NC9 per kg body weight delivered in 200 μl by gavage three times per week. Images represent appearance and size of typical control and NC9 treated tumors harvested on week four. In (G), tumors were harvested at 4 wk and extracts were prepared for assay of indicated proteins. Blots from two representative tumors are shown. In (H), a proposed TG2 signaling scheme is shown. TG2 interacts with α6/β4 integrin to enhance integrin (FAK/Src) signaling which increases PI3K/PDK1 activity and PDK suppresses activity in the Hippo signaling cascade (LATS1). This leads to reduced LATS1 phosphorylation of YAP1 which then interacts with and stabilizes ΔNp63α. […]
Tumor xenograft growth assay. […] Tumor growth was monitored by measuring tumor diameter and calculating tumor volume=4/3π×(diameter/2)^3 (Streit, M. et al., Am. J. Pathol. 155:441-52, 1999). […]

A431 cells = test: Migration (scratch wound closure) assay, A431 cells; assay type: cell-based, human; conditions: 20 μM
Protocol: In (A), it is shown that A431-derived ECS cells have elevated TG2 and mesenchymal markers. A431 cells (40,000 cells/well) were grown in spheroid media in monolayer conditions or as non-attached spheroids (ECS cells) for 10 d. Cells were harvested and lysates prepared for immunoblot. In (B), A431 cells were electroporated with 3 μg of control- or TG2-siRNA and at 72 h extracts were prepared to assay TG2 and EMT marker level. In (C), A431-derived ECS cells were electroporated with 3 μg of the indicated siRNA and then grown as spheroids for 96 h. […] In (D), A431 cells (500,000 cells/well) were plated in monolayer culture in spheroid media in 100 mm dishes. […] Confluent monolayers were then scratched with a 10-μL pipette tip, rinsed, and width of the wound was monitored for 0-14 h.
In (A), A431 cells were grown as monolayers or in ultralow attachment plates (spheroids) in spheroid medium. […] Spheroid number was counted on days 1, 2 and 3. […] Spheroid number and trypan-blue viable cell number were determined at the indicated times following NC9 addition. […] A wound was created and ability of the cells to close the wound was monitored with time. […]
Migration assay. […] Images were collected, at 0-18 h after the scratch using the 10× objective, and the width of the opening was measured as a function of time as an index of cell migration potential.

C=CC(=O)NCCCC[C@H](NC(=O)OCc1ccccc1)C(=O)NCCOCCOCCNS(=O)(=O)c1cccc2c(N(C)C)cccc12 [NC9]
tumor formation ([1]; 20 mg/kg body weight, three times per week, 4 wk): markedly suppressed tumor formation | integrin and Hippo signaling in tumor extracts ([1]; 20 mg/kg, tumors harvested at 4 wk): reduced integrin-04 level, and FAK and Src activity, and increased LATS1-P and YAP-P | cell migration / scratch wound closure (A431 cells): reduced cell migration
